From patent US8022239B2, “Mechanism-based inactivators of autotaxin” (The University of Memphis Research Foundation, priority 2008, dated 2011)

Target: T1, autotaxin (ATX) (Homo sapiens, UniProt Q13822)
T1 construct: concentrated conditioned serum-free medium (CCM) from MDA MB-435 cells as the source of ATX; endogenous in cells; host or cells: MDA-MB-435 cells (serum-free conditioned medium, concentrated ~10 fold)
Assay: Autotaxin inactivation analysis: ATX-mediated hydrolysis of FS-3 (fluorescence), concentrated conditioned medium from MDA MB-435 cells as ATX source
Type: biochemical
Details: FS-3 substrate
Experimental: The test protocol was as follows:
MDA-MB-435 cells were cultured at 37° C. and 5% CO2 in Dulbecco's Modified Eagle Medium (DMEM) (MediaTech, Herndon, Va.) containing 5% fetal bovine serum (Hyclone, Logan, Utah), 100 U/ml penicillin, 100 μg/ml streptomycin (Hyclone, Logan, Utah) and 292 μg/ml L-glutamine (Hyclone, Logan, Utah). Cells were grown to ˜80% confluence at which time the cells were washed twice with sterile phosphate buffered saline prior to the addition of serum free DMEM containing L-glutamine. Conditioned medium was collected after 24-30 hours, supplemented with 20% ethylene glycol and was clarified by centrifugation at 3000×g and 4° C. for 10 min. The media was concentrated ˜10 fold and buffer exchanged into Tris (50 mM, pH 7.4) containing 20% ethylene glycol using an Amicon 8050 cell fitted with a PM30 filter (MILLIPORE®, Billerica, Mass.). Aliquots of concentrated conditioned media were stored at 4° C. until needed.
ATX inhibition was assayed using FS-3 (Echelon Biosciences, Inc., Salt Lake City, Utah, USA) as a substrate and ˜10 times concentrated conditioned serum-free medium (CCM) from MDA MB-435 cells as the source of ATX. Assays were performed in 96-well plates with CCM comprising one-third of the total volume and final FS-3 and charcoal-stripped fatty acid free BSA concentrations of 1 and 30 μM in assay buffer (1 mM each CaCl2 and MgCl2, 5 mM KCl, 140 mM NaCl, 50 mM Tris pH 8.0). Fluorescence was read at 5 minute intervals by a Synergy2 system (BioTek, Winooski, Vt.) with excitation and emission wavelengths of 485 and 538 nm, respectively. […] Fluorescence readings were normalized to vehicle control after subtraction of fluorescence in the absence of CCM. Data are shown as the mean±S.D. of at least three wells.

[1] = 3 uM, time 0 hour, low % response = effective inhibition

Structure (SMILES) | Fluorescence (% Response) (30 uM, time 0 hour) [%] | Fluorescence (% Response) (100 uM, time 0 hour) [%] | Fluorescence (% Response) [1] [%] | Fluorescence (% Response) (3 uM, time 1 hour) [%] | Fluorescence (% Response) (3 uM, time 3 hours) [%] | Fluorescence (% Response) (3 uM, time 6 hours) [%] | Fluorescence (% Response) (30 uM, time 1 hour) [%] | Fluorescence (% Response) (30 uM, time 3 hours) [%] | Fluorescence (% Response) (30 uM, time 6 hours) [%]
CCCCCCCCCCCCCCCCCCOP(=O)(O)Oc1ccc(C(F)F)cc1 [Example 1, (18:0)-p-difluorophosphodiester] | 96.1 | 94.1 | – | – | – | – | – | – | –
CCCCCCCCCCCCCCCCCCOP(=O)(O)Oc1ccc(CF)cc1 [Example 2, (18:0)-p-monofluorophosphodiester] | 57.3 | – | 83.3 | 47.9 | 28.1 | 25.0 | 35.4 | 9.4 | −2.1
CCCCCCCCCCCCCCCCOP(=O)(O)Oc1ccc(C(F)F)cc1 [Example 3, (16:0)-p-difluorophosphodiester] | 71.9 | – | 94.8 | 60.4 | 44.8 | 34.4 | 37.5 | 19.0 | –
CCCCCCCCCCCCCCCCOP(=O)(O)Oc1ccc(CF)cc1 [Example 4, (16:0)-p-monofluorophosphodiester] | 26.0 | – | 81.3 | 50.0 | 33.3 | 21.9 | 12.5 | 5.2 | −2.1
CCCCCCCCCCCCCCOP(=O)(O)Oc1ccc(C(F)F)cc1 [Example 5, (14:0)-p-difluorophosphodiester] | 24.5 | – | 92.5 | 57.1 | 42.7 | 31.2 | 14.3 | 12.9 | 9.6
CCCCCCCCCCCCCCOP(=O)(O)Oc1ccc(CF)cc1 [Example 6, (14:0)-p-monofluorophosphodiester] | 48.9 | – | 95.9 | 61.9 | 45.7 | 32.7 | 31.3 | 25.0 | 18.5
CCCCCCCCCCCCOP(=O)(O)Oc1ccc(C(F)F)cc1 [Example 7, (12:0)-p-difluorophosphodiester] | 52.0 | – | 93.9 | 64.5 | 48.3 | 37.0 | 36.2 | 29.4 | 24.9
CCCCCCCCCCCCOP(=O)(O)Oc1ccc(CF)cc1 [Example 8, (12:0)-p-monofluorophosphodiester] | 89.1 | – | 99.4 | 70.0 | 52.2 | 40.6 | 63.0 | 48.4 | 37.7
CCCCCCCCCCCCCCCCOP(=O)(O)Oc1ccccc1CF [Example 10, (16:0)-o-monofluorophosphodiester] | 0.4 | – | 86.6 | 29.3 | 10.6 | 4.7 | −16.8 | −18.7 | −17.0
